In patent US20230127944A1, “BROAD-SPECTRUM CARBAPENEMS” (priority 2019, published 2023) one finds MIC data, which are given here for ten molecules.

≈ marks a conversion by molar mass, not a printed value.

What all share (assay type): cell-based
For assay [1], the system named is P. aeruginosa ATCC 27853 (wild-type/QC strain). Nature of the assay: broth microdilution MIC assay, P. aeruginosa 27853. Particulars: Pseudomonas aeruginosa, ATCC27853; read-out: MIC, P. aeruginosa 27853. The protocol:
(§1) To determine the ability of test compounds to inhibit the growth of bacterial strains, classic cell-based broth microdilution MIC assays were employed. MIC assays are performed according to CLSI methods except where otherwise noted (CLSI, 2011 and CLSI, 2009). The reference strains S. aureus ATCC 29213 (methicillin sensitive), S. aureus ATCC 33591 (methicillin-resistant), E. coli ATCC 25922 (wild-type/QC strain), P. aeruginosa ATCC 27853 (wild-type/QC strain), and the clinical isolate P. aeruginosa PA 8 were used to determine the ability of the exemplary carbapenem compounds to inhibit bacterial growth. An expanded panel of methicillin resistance S. aureus (MRSA) and Pseudomonas was also used to determine the ability of exemplary carbapenem compounds to inhibit bacterial growth across a broader representation of those species. To determine activity in MRSA and in addition to S. aureus ATCC 33591, S. aureus USA 300 and USA 600, some of the most common clones found to cause human infection, were also used. To further gauge the impact on the carbapenem compounds due to various resistance mechanisms in Pseudomonas, the following strains were included: P. aeruginosa 35151 (hyper-permeable strain), P. aeruginosa ΔmexAB-OprM (an efflux pump knockout), and P. aeruginosa Paβ-173 (a clinical isolate of reduced carbapenem susceptibility). Briefly, cryo-preserved bacterial cultures of clinical strains are streaked for isolation on appropriate agar medium, in this case Mueller Hinton II agar. Following incubation to allow formation of colonies, these plates are sealed with parafilm and stored refrigerated for up to two weeks. For preparation of assay inocula and to ensure low variability, at least 5 colonies are picked from the agar plates with an inoculating loop and aseptically transferred to a culture tube containing 3 mL of Mueller-Hinton Broth (supplemented with divalent cations to required levels based on Manufacturers' specification). The broth culture is grown for 3-5 hours at 37° C. with shaking at 200 rpm. Meanwhile, 2-fold serial dilutions of test compounds are conducted in a 96 well plate with a final volume of 75 μL per well at 2-fold the final desired concentration. After the dilution plates are set up the growing cultures are then diluted in a cuvette containing MH II broth and the optical density is measured at 600 nm. Inocula are diluted such that 75 μL of this culture in Mueller-Hinton Broth results in a starting bacterial concentration of 5×10^5 CFU/mL when added to the dilution plates. The plates are incubated 16-20 hours at 37° C. The MIC is read visually as the lowest concentration well with no bacterial growth.
A general note: Dilution methods test growth across graded concentrations, often in twofold steps.

Assay [2] concerns E. coli ATCC 25922 (wild-type/QC strain). Nature of the assay: broth microdilution MIC assay, E. coli 25922. The note with it: Escherichia coli, ATCC25922; read-out: MIC, E. coli 25922. The protocol:
as §1

For assay [3], the system named is P. aeruginosa 35151 (hyper-permeable strain). Nature of the assay: broth microdilution MIC assay, P. aeruginosa 35151. The note with it: Pseudomonas aeruginosa, read-out: MIC, P. aeruginosa 35151. The procedure:
as §1

Assay [4] concerns S. aureus ATCC 33591 (methicillin-resistant). Nature of the assay: broth microdilution MIC assay, S. aureus 33591. Particulars: Staphylococcus aureus, ATCC33591; S. aureus 33591, methicillin-resistant; read-out: MIC, S. aureus 33591. The procedure: as §1
For assay [5], the system named is P. aeruginosa Paeβ-17. Put plainly: broth microdilution MIC assay, P. aeruginosa Paeβ-17. The note with it: Pseudomonas aeruginosa, read-out: MIC, P. aeruginosa Paeβ-17. The protocol: as §1
The test system of assay [6] is P. aeruginosa ΔmexAB-OprM (an efflux pump knockout). Nature of the assay: broth microdilution MIC assay, P. aeruginosa ΔmexAB-OprM. The note with it: Pseudomonas aeruginosa, read-out: MIC, P. aeruginosa ΔmexAB-OprM. The procedure:
as §1

Assay [7] relates to S. aureus USA 300. Put plainly: broth microdilution MIC assay, S. aureus USA300. Particulars: Staphylococcus aureus; S. aureus USA300 (MRSA); read-out: MIC, S. aureus USA300. The procedure:
as §1

In assay [8] the test system is S. aureus USA 600. Nature of the assay: broth microdilution MIC assay, S. aureus USA600. Particulars: Staphylococcus aureus; S. aureus USA600 (MRSA); read-out: MIC, S. aureus USA600. The protocol: as §1

Usually MIC stands for the smallest concentration in the dilution series that meets the test's criterion for growth inhibition. Turning to `C[C@@H](O)[C@H]1C(=O)N2C(C(=O)O)=C(S[C@H]3C[C@H](NC4CCN(C(=N)N)CC4)C3)[C@H](C)[C@H]12` [Example 48, (4R,5S,6S)-3-(((1R,3R)-3-((1-carbamimidoylpiperidin-4-yl)amino)cyclobutyl)thio)-6-((R)-1-hydroxyethyl)-4-methyl-7-oxo-1-azabicyclo[3.2.0]hept-2-ene-2-carboxylic acid], the minimal inhibitory concentration (MIC) in assay [1] was 8 to 32 µg/mL (≈ 18.3 to 73.1 µM); in assay [2] it was less than 1 µg/mL; in assay [3] it was less than 1 µg/mL; in assay [4], 8 to 32 µg/mL (≈ 18.3 to 73.1 µM); in assay [5], 8 to 32 µg/mL (≈ 18.3 to 73.1 µM); in assay [6] it was 1 to 4 µg/mL (≈ 2.29 to 9.14 µM). Besides, the MIC in assay [7] and in assay [8] was 1 to 4 µg/mL (≈ 2.29 to 9.14 µM) each time.

As for `C[C@@H](O)[C@H]1C(=O)N2C(C(=O)O)=C(S[C@@H]3CC[C@H](NC4CCNCC4)C3)[C@H](C)[C@H]12` [Example 50, (4R,5S,6S)-6-((R)-1-hydroxyethyl)-4-methyl-7-oxo-3-(((1R,3S)-3-(piperidin-4-ylamino)cyclopentyl)thio)-1-azabicyclo[3.2.0]hept-2-ene-2-carboxylic acid], the minimum inhibitory concentration (MIC) is 8 to 32 µg/mL (≈ 19.5 to 78.1 µM) in assay [1]; less than 1 µg/mL in assay [2]; less than 1 µg/mL in assay [3]; 1 to 4 µg/mL (≈ 2.44 to 9.77 µM) in assay [4]; 8 to 32 µg/mL (≈ 19.5 to 78.1 µM) in assay [5]; 1 to 4 µg/mL (≈ 2.44 to 9.77 µM) in assay [6]. For the same molecule, the minimal inhibitory concentration (MIC) in assay [7] and in assay [8] was 1 to 4 µg/mL (≈ 2.44 to 9.77 µM) throughout.

As for `C[C@@H](O)[C@H]1C(=O)N2C(C(=O)O)=C(S[C@H]3C[C@H](N[C@@H]4CC[C@H](NC(=N)N)C4)C3)[C@H](C)[C@H]12` [Example 79, (4R,5S,6S)-3-(((1R,3R)-3-(((1R,3S)-3-guanidinocyclopentyl)amino)cyclobutyl)thio)-6-((R)-1-hydroxyethyl)-4-methyl-7-oxo-1-azabicyclo[3.2.0]hept-2-ene-2-carboxylic acid], the MIC in assay [1] was 1 to 4 µg/mL (≈ 2.29 to 9.14 µM); in assay [2], less than 1 µg/mL; in assay [3], less than 1 µg/mL; in assay [4] it was 8 to 32 µg/mL (≈ 18.3 to 73.1 µM); in assay [5], 1 to 4 µg/mL (≈ 2.29 to 9.14 µM); in assay [6], 8 to 32 µg/mL (≈ 18.3 to 73.1 µM). For the same molecule, the MIC in assay [7] and in assay [8] was 1 to 4 µg/mL (≈ 2.29 to 9.14 µM) each time.

`C[C@@H](O)[C@H]1C(=O)N2C(C(=O)O)=C(SC3CN(C[C@H]4CCN(C(=N)N)C4)C3)[C@H](C)[C@H]12` [Example 46, (4R,5S,6S)-3-((1-(((R)-1-carbamimidoylpyrrolidin-3-yl)methyl)azetidin-3-yl)thio)-6-((R)-1-hydroxyethyl)-4-methyl-7-oxo-1-azabicyclo[3.2.0]hept-2-ene-2-carboxylic acid]: the MIC in assay [1] was 1 to 4 µg/mL (≈ 2.36 to 9.44 µM); in assay [2], less than 1 µg/mL; in assay [3], less than 1 µg/mL; in assay [4], 1 to 4 µg/mL (≈ 2.36 to 9.44 µM); in assay [5], 8 to 32 µg/mL (≈ 18.9 to 75.6 µM); in assay [6], 1 to 4 µg/mL (≈ 2.36 to 9.44 µM). The minimum inhibitory concentration (MIC) in assay [7] and in assay [8] was 1 to 4 µg/mL (≈ 2.36 to 9.44 µM) in each case.

Turning to `C[C@@H](O)[C@H]1C(=O)N2C(C(=O)O)=C(S[C@H]3C[C@H](N[C@H]4CC[C@H](N)C4)C3)[C@H](C)[C@H]12` [Example 67, (4R,5S,6S)-3-(((1S,3R)-3-(((1S,3S)-3-aminocyclopentyl)amino)cyclobutyl)thio)-6-((R)-1-hydroxyethyl)-4-methyl-7-oxo-1-azabicyclo[3.2.0]hept-2-ene-2-carboxylic acid], the MIC was 8 to 32 µg/mL (≈ 20.2 to 80.9 µM) in assay [1]; less than 1 µg/mL in assay [2]; less than 1 µg/mL in assay [3]; 8 to 32 µg/mL (≈ 20.2 to 80.9 µM) in assay [4]; 8 to 32 µg/mL (≈ 20.2 to 80.9 µM) in assay [5]; 1 to 4 µg/mL (≈ 2.53 to 10.1 µM) in assay [6]. Also, the MIC in assay [7] lay in the range of 8 to 32 µg/mL (≈ 20.2 to 80.9 µM); in assay [8], 1 to 4 µg/mL (≈ 2.53 to 10.1 µM).

As to `C[C@@H](O)[C@H]1C(=O)N2C(C(=O)O)=C(S[C@H]3C[C@H](N[C@H]4CC[C@H](N)CC4)C3)[C@H](C)[C@H]12` [Example 59, (4R,5S,6S)-3-(((1R,3R)-3-(((1R,4R)-4-aminocyclohexyl)amino)cyclobutyl)thio)-6-((R)-1-hydroxyethyl)-4-methyl-7-oxo-1-azabicyclo[3.2.0]hept-2-ene-2-carboxylic acid], the MIC was 8 to 32 µg/mL (≈ 19.5 to 78.1 µM) in assay [1]; less than 1 µg/mL in assay [2]; less than 1 µg/mL in assay [3]; 1 to 4 µg/mL (≈ 2.44 to 9.77 µM) in assay [4]; 8 to 32 µg/mL (≈ 19.5 to 78.1 µM) in assay [5]; 1 to 4 µg/mL (≈ 2.44 to 9.77 µM) in assay [6]. Besides, the MIC in assay [7] fell in the range of 1 to 4 µg/mL (≈ 2.44 to 9.77 µM); in assay [8], 8 to 32 µg/mL (≈ 19.5 to 78.1 µM).

For `C[C@@H](O)[C@H]1C(=O)N2C(C(=O)O)=C(S[C@@H]3CCN([C@H]4CC[C@@H](N)C4)C3)[C@H](C)[C@H]12` [Example 36, (4R,5S,6S)-3-(((R)-1-((1S,3R)-3-aminocyclopentyl)pyrrolidin-3-yl)thio)-6-((R)-1-hydroxyethyl)-4-methyl-7-oxo-1-azabicyclo[3.2.0]hept-2-ene-2-carboxylic acid], the minimal inhibitory concentration (MIC) in assay [1] was 1 to 4 µg/mL (≈ 2.53 to 10.1 µM); in assay [2], less than 1 µg/mL; in assay [3], less than 1 µg/mL; in assay [4] it was 1 to 4 µg/mL (≈ 2.53 to 10.1 µM); in assay [5], 8 to 32 µg/mL (≈ 20.2 to 80.9 µM); in assay [6], 1 to 4 µg/mL (≈ 2.53 to 10.1 µM). The MIC in assay [7] and in assay [8] was 1 to 4 µg/mL (≈ 2.53 to 10.1 µM) in each case.

`C[C@@H](O)[C@H]1C(=O)N2C(C(=O)O)=C(S[C@@H]3CCN([C@H]4CC[C@H](CNC(=N)N)CC4)C3)[C@H](C)[C@H]12` [Example 64, (4R,5S,6S)-3-(((R)-1-((1R,4R)-4-(guanidinomethyl)cyclohexyl)pyrrolidin-3-yl)thio)-6-((R)-1-hydroxyethyl)-4-methyl-7-oxo-1-azabicyclo[3.2.0]hept-2-ene-2-carboxylic acid]: the MIC in assay [1] is 1 to 4 µg/mL (≈ 2.15 to 8.59 µM); in assay [2], less than 1 µg/mL; in assay [3], less than 1 µg/mL; in assay [4], 1 to 4 µg/mL (≈ 2.15 to 8.59 µM); in assay [5] it was 8 to 32 µg/mL (≈ 17.2 to 68.7 µM); in assay [6], 1 to 4 µg/mL (≈ 2.15 to 8.59 µM). Besides, the MIC in assay [7] and in assay [8] was 1 to 4 µg/mL (≈ 2.15 to 8.59 µM) throughout.

In the case of `C[C@@H](O)[C@H]1C(=O)N2C(C(=O)O)=C(S[C@H]3C[C@H](N[C@H]4CC[C@H](NC(=N)N)CC4)C3)[C@H](C)[C@H]12` [Example 68, (4R,5S,6S)-3-(((1R,3R)-3-(((1R,4R)-4-guanidinocyclohexyl)amino)cyclobutyl)thio)-6-((R)-1-hydroxyethyl)-4-methyl-7-oxo-1-azabicyclo[3.2.0]hept-2-ene-2-carboxylic acid], the MIC was 8 to 32 µg/mL (≈ 17.7 to 70.9 µM) in assay [1]; less than 1 µg/mL in assay [2]; less than 1 µg/mL in assay [3]; 8 to 32 µg/mL (≈ 17.7 to 70.9 µM) in assay [4]; 8 to 32 µg/mL (≈ 17.7 to 70.9 µM) in assay [5]; 1 to 4 µg/mL (≈ 2.21 to 8.86 µM) in assay [6]. The MIC in assay [7] and in assay [8] was 1 to 4 µg/mL (≈ 2.21 to 8.86 µM) throughout.

`C[C@@H](O)[C@H]1C(=O)N2C(C(=O)O)=C(S[C@@H]3CCN([C@H]4CC[C@@H](CNC(=N)N)CC4)C3)[C@H](C)[C@H]12` [Example 63, (4R,5S,6S)-3-(((R)-1-((1S,4S)-4-(guanidinomethyl)cyclohexyl)pyrrolidin-3-yl)thio)-6-((R)-1-hydroxyethyl)-4-methyl-7-oxo-1-azabicyclo[3.2.0]hept-2-ene-2-carboxylic acid]: the minimal inhibitory concentration (MIC) is 1 to 4 µg/mL (≈ 2.15 to 8.59 µM) in assay [1]; less than 1 µg/mL in assay [2]; less than 1 µg/mL in assay [3]; 1 to 4 µg/mL (≈ 2.15 to 8.59 µM) in assay [4]; 8 to 32 µg/mL (≈ 17.2 to 68.7 µM) in assay [5]; 1 to 4 µg/mL (≈ 2.15 to 8.59 µM) in assay [6]. The MIC in assay [7] and in assay [8] was 1 to 4 µg/mL (≈ 2.15 to 8.59 µM) each time.
